Measured values published in patent US11447466B2, “Substituted indole compounds useful as inhibitors of TLR7/8/9” (BRISTOL-MYERS SQUIBB COMPANY, priority 2017, dated 2022).

Tests used:
Assay type in all cases: cell-based
human TLR8 = molecular target: T1, human TLR8 (Homo sapiens, UniProt Q9NR97); assay: TLR8 inhibition reporter assay (HEK-Blue SEAP reporter, R848 stimulation); details: HEK-Blue cells overexpressing human TLR8, SEAP reporter, R848 15.9 μM, 22 hour incubation
T1 construct: host or cells: HEK-Blue cells
T1 sequence (Q9NR97 27-1041): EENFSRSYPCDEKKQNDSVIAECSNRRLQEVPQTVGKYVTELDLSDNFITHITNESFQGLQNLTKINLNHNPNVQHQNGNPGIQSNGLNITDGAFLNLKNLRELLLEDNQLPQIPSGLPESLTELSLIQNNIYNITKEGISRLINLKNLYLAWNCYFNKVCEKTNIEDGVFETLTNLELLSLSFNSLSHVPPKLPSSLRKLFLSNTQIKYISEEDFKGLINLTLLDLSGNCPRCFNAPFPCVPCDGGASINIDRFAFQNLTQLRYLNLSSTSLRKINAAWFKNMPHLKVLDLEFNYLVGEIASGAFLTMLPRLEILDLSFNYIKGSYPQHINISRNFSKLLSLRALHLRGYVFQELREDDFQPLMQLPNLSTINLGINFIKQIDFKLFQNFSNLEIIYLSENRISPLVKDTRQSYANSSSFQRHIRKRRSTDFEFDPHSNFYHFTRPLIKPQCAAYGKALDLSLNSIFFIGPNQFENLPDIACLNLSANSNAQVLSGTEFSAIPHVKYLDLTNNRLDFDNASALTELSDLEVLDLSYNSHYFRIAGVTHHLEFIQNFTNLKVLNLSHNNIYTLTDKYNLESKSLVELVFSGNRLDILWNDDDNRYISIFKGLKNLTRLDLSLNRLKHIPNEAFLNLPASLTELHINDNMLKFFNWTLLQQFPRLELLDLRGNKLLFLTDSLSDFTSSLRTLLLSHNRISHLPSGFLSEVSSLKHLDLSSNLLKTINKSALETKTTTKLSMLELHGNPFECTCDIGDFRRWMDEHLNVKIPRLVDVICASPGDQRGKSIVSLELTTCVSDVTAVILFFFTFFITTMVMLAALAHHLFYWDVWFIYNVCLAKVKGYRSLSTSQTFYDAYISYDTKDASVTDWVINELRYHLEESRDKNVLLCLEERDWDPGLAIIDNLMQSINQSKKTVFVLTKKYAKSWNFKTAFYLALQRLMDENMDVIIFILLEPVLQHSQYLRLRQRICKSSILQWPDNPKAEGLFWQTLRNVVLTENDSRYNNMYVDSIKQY
In short: (§1)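 Human TLR7/8/9 HEK-Blue reporter lines; dose range 0.05 nM–50 μM; 30 min RT preincubation; stimulus gardiquimod 7.5 μM / R848 15.9 μM / ODN2006 5 nM respectively; 22 h, 37 °C; SEAP detected colorimetrically.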

human TLR9 = molecular target: T2, human TLR9 (Homo sapiens, UniProt Q9NR96); assay: TLR9 inhibition reporter assay (HEK-Blue SEAP reporter, ODN2006 stimulation); details: HEK-Blue cells overexpressing human TLR9, SEAP reporter, ODN2006 5 nM, 22 hour incubation
T2 construct: host or cells: HEK-Blue cells
T2 sequence (Q9NR96 26-1032): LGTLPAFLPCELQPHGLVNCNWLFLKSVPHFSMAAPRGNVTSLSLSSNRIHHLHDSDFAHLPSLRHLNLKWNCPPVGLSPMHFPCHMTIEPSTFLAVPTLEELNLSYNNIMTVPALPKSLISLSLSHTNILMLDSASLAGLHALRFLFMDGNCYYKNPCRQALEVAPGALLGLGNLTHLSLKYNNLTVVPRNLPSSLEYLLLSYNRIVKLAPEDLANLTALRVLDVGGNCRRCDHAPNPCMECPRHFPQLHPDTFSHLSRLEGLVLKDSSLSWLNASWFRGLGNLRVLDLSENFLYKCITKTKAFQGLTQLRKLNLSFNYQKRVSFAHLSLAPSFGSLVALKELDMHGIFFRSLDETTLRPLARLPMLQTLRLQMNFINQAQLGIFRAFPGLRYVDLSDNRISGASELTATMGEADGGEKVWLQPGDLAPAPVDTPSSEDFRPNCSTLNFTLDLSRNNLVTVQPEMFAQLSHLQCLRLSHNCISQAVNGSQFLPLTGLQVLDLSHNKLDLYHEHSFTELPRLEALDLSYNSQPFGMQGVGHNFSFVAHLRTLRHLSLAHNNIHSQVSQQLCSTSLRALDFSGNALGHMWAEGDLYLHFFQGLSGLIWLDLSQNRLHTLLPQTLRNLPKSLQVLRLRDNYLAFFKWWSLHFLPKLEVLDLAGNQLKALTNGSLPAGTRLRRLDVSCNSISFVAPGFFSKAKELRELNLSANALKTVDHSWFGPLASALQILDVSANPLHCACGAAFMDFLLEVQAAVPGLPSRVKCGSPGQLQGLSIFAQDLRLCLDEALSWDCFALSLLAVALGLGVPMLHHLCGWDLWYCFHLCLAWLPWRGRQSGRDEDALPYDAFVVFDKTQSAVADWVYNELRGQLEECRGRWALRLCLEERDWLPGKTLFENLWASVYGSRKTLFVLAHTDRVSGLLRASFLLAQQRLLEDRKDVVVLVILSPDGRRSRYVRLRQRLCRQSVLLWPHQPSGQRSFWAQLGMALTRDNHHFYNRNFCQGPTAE
In short: as §1

human TLR7 = molecular target: T3, human TLR7 (Homo sapiens, UniProt Q9NYK1); assay: TLR7 inhibition reporter assay (HEK-Blue SEAP reporter, gardiquimod stimulation); details: HEK-Blue cells overexpressing human TLR7, SEAP reporter, gardiquimod 7.5 μM, 22 hour incubation
T3 construct: host or cells: HEK-Blue cells
T3 sequence (Q9NYK1 27-1049): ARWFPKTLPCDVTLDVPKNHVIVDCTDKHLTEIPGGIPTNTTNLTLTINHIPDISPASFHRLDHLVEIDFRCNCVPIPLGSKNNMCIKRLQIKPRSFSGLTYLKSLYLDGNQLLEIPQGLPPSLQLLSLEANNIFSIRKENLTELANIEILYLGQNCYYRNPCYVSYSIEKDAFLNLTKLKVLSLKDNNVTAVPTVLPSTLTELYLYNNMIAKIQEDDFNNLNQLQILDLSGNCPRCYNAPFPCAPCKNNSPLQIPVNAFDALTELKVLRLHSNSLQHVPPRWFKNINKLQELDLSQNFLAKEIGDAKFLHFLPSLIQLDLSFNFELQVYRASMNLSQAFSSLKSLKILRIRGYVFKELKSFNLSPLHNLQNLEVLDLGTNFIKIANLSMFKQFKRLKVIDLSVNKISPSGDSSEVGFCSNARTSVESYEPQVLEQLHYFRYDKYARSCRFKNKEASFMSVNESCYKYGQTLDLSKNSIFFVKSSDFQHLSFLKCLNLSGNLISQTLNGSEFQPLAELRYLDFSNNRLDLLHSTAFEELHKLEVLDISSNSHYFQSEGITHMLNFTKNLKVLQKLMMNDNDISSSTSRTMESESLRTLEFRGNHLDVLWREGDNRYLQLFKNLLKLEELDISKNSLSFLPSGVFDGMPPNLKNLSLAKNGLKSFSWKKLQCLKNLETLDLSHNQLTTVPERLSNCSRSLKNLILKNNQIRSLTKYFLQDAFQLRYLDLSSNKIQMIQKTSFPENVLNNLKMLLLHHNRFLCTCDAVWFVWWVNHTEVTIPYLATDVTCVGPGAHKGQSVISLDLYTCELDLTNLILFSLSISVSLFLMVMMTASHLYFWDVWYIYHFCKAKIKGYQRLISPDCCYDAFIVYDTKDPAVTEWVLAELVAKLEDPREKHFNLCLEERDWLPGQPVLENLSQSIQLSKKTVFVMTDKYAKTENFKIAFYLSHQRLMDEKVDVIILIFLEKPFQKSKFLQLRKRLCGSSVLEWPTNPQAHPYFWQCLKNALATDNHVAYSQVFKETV
In short: as §1

IC50 (human TLR8) [nM]	IC50 (human TLR9) [nM]	IC50 (human TLR7) [nM]	Compound
9.3	4880	12.8	COCCOCCN1CCC(c2ccc3[nH]c(-c4cn(C)c(=O)c(Cl)c4C)c(C(C)C)c3c2)CC1 [Example 101, 3-chloro-5-(3-isopropyl-5-(1-(2-(2-methoxyethoxy)ethyl)piperidin-4-yl)-1H-indol-2-yl)-1,4-dimethylpyridin-2(1H)-one]
32.4	≥ 50000	33.2	Cc1c(-c2[nH]c3ccc(C4CCN(CCC(F)(F)F)CC4)cc3c2C(C)C)cn(C)c(=O)c1Cl [Example 102, 3-chloro-5-(3-isopropyl-5-(1-(3,3,3-trifluoropropyl)piperidin-4-yl)-1H-indol-2-yl)-1,4-dimethylpyridin-2(1H)-one]
1.3	2080	9.6	COCCN1CCC(c2ccc3[nH]c(-c4cc(-c5cncnc5)c(=O)n(C)c4)c(C(C)C)c3c2)CC1 [Example 103, 5-(3-isopropyl-5-(1-(2-methoxyethyl)piperidin-4-yl)-1H-indol-2-yl)-1-methyl-3-(pyrimidin-5-yl)pyridin-2(1H)-one]
3.5	2700	13.1	CC(C)c1c(-c2cc(-c3cncnc3)c(=O)n(C)c2)[nH]c2ccc(C3CCN(CCCC(F)(F)F)CC3)cc12 [Example 104, 5-(3-isopropyl-5-(1-(4,4,4-trifluorobutyl)piperidin-4-yl)-1H-indol-2-yl)-1-methyl-3-(pyrimidin-5-yl)pyridin-2(1H)-one]
10.7	5520	5.1	Cc1c(-c2[nH]c3ccc(C4CCN(CCCC(F)(F)F)CC4)cc3c2C(C)C)cn(C)c(=O)c1Cl [Example 105, 3-chloro-5-(3-isopropyl-5-(1-(4,4,4-trifluorobutyl)piperidin-4-yl)-1H-indol-2-yl)-1,4-dimethylpyridin-2(1H)-one]
5.5	1250	6.2	Cc1c(-c2[nH]c3ccc(C4CCN(CC(C)C)CC4)cc3c2C(C)C)cn(C)c(=O)c1Cl [Example 106, 3-chloro-5-(5-(1-isobutylpiperidin-4-yl)-3-isopropyl-1H-indol-2-yl)-1,4-dimethylpyridin-2(1H)-one]
4.4	13400	6.6	Cc1c(-c2[nH]c3ccc(C4CCN(CCS(C)(=O)=O)CC4)cc3c2C(C)C)cn(C)c(=O)c1Cl [Example 107, 3-chloro-5-(3-isopropyl-5-(1-(2-(methylsulfonyl)ethyl)piperidin-4-yl)-1H-indol-2-yl)-1,4-dimethylpyridin-2(1H)-one]
2	7540	32.8	CC(C)c1c(-c2cc(-c3cncnc3)c(=O)n(C)c2)[nH]c2ccc(C3CCN(CCS(C)(=O)=O)CC3)cc12 [Example 108, 5-(3-isopropyl-5-(1-(2-(methylsulfonyl)ethyl)piperidin-4-yl)-1H-indol-2-yl)-1-methyl-3-(pyrimidin-5-yl) pyridin-2(1H)-one]
9.7	5310	13	COCCn1cc(-c2[nH]c3ccc(C4CCN(CC(C)C)CC4)cc3c2C(C)C)cc(C)c1=O [Example 109, 5-(5-(1-isobutylpiperidin-4-yl)-3-isopropyl-1H-indol-2-yl)-1-(2-methoxyethyl)-3-methylpyridin-2(1H)-one]
163	5260	56.1	Cc1cc(-c2[nH]c3ccc(C4CCN(CCCC(F)(F)F)CC4)cc3c2C(C)C)cn(CC(C)C)c1=O [Example 110, 1-isobutyl-5-(3-isopropyl-5-(1-(4,4,4-trifluorobutyl)piperidin-4-yl)-1H-indol-2-yl)-3-methylpyridin-2(1H)-one]
157	3060	48	Cc1cc(-c2[nH]c3ccc(C4CCN(CCCC(F)(F)F)CC4)cc3c2C(C)C)cn(Cc2ccccc2)c1=O [Example 111, 1-benzyl-5-(3-isopropyl-5-(1-(4,4,4-trifluorobutyl)piperidin-4-yl)-1H-indol-2-yl)-3-methylpyridin-2(1H)-one]
70.5	2360	38.9	Cc1cc(-c2[nH]c3ccc(C4CCN(CC(C)C)CC4)cc3c2C(C)C)cn(CC(C)C)c1=O [Example 112, 1-isobutyl-5-(5-(1-isobutylpiperidin-4-yl)-3-isopropyl-1H-indol-2-yl)-3-methylpyridin-2(1H)-one]
70.7	2190	26.4	Cc1cc(-c2[nH]c3ccc(C4CCN(CC(C)C)CC4)cc3c2C(C)C)cn(Cc2ccccc2)c1=O [Example 113, 1-benzyl-5-(5-(1-isobutylpiperidin-4-yl)-3-isopropyl-1H-indol-2-yl)-3-methylpyridin-2(1H)-one]
43.6	10400	42.9	CC(C)c1c(-c2ccc(=O)n(C)c2)[nH]c2ccc(C3CCN(CC(=O)N(C)C)CC3)cc12 [Example 114, 2-(4-(3-isopropyl-2-(1-methyl-6-oxo-1,6-dihydropyridin-3-yl)-1H-indol-5-yl)piperidin-1-yl)-N,N-dimethylacetamide]
